SMILES strings stand for the structures.

The Ki is a measure of affinity in units of concentration, obtained from inhibition or displacement.

In the first experiment the target is T1, chimeric human H3 receptor (Homo sapiens, UniProt Q9Y5N1).
T1 construct: made in house; host or cells: Sf9 insect cells (baculovirus); P2 membrane preparation
T1 sequence (Q9Y5N1 with tags, fused parts or gaps): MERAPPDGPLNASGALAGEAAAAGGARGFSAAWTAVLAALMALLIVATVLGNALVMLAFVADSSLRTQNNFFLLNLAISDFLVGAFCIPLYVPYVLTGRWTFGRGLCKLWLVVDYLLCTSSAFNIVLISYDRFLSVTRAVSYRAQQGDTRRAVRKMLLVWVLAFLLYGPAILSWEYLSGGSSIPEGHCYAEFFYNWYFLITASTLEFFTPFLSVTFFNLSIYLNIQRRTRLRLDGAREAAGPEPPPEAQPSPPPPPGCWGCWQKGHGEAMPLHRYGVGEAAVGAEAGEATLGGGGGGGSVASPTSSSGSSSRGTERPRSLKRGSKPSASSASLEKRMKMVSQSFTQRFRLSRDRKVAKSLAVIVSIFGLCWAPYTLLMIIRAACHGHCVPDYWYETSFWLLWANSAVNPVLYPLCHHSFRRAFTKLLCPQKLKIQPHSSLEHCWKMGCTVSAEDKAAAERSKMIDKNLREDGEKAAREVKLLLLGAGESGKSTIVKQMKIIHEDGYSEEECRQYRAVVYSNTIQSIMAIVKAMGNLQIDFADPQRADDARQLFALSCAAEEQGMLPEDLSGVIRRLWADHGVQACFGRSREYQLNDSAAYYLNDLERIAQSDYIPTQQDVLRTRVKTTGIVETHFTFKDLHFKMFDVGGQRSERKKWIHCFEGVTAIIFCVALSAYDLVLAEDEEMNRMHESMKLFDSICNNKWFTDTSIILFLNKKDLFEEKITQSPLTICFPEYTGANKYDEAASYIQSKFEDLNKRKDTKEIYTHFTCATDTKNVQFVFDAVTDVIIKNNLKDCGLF
The experiment can be described thus: Chimeric human H3 receptor GTP binding assay (agonist-stimulated GTP-gamma35S binding, Example 7). The format is biochemical. The settings on record: Table I; P2 membranes of Sf9 cells, 1 μM histamine as agonist, Ki from IC50 by Cheng-Prusoff. From the text: This Example illustrates a representative assay for evaluating agonist-stimulated GTP-gamma^35S binding (“GTP binding”) activity. […] This agonist-stimulated GTP binding activity can also be used to detect partial agonism mediated by antagonist compounds. A compound analyzed in this assay is referred to herein as a “test compound.”
Four independent baculoviral stocks (one directing the expression of the chimeric human H3 receptor and three directing the expression of each of the three subunits of a heterotrimeric G-protein) are used to infect a culture of Sf9 cells as described above. P2 membranes are prepared as described above, and agonist-stimulated GTP binding on the P2 membranes is assessed using histamine (Sigma Chemical Co., St. Louis, Mo.) as agonist in order to ascertain that the receptor/G-protein-alpha-beta-gamma combination(s) yield a functional response as measured by GTP binding. P2 membranes are resuspended by Dounce homogenization (tight pestle) in GTP binding assay buffer (50 mM Tris pH 7.4, 120 mM NaCl, 5 mM MgCl2, 2 mM EGTA, 1 mg/ml BSA, 0.2 mg/ml bacitracin, 0.02 mg/ml aprotinin, 0.01 mg/ml saponin, 10 μM GDP) and added to assay tubes at a concentration of 35 μg protein/reaction tube. After adding increasing doses of histamine at concentrations ranging from 10^−12 M to 10^−5 M, reactions are initiated by the addition of […] GTP-gamma^35S (PERKIN ELMER; Boston, Mass.) with a final assay volume of 0.20 ml. In competition experiments, non-radiolabeled test compounds are added to separate reactions at concentrations ranging from 10^−10 M to 10^−6 M along with 1 μM histamine to yield a final volume of 0.20 ml.
Neutral antagonists are antagonists that are substantially free of inherent agonist activity, and include those test compounds that reduce the histamine-stimulated GTP binding activity towards, but not below, baseline levels. In contrast, in the absence of added histamine, inverse agonists reduce the GTP binding activity of the receptor-containing membranes below baseline.
After a 60-min incubation at room temperature, reactions are terminated by vacuum filtration over WHATMAN GF/C filters (pre-soaked in wash buffer, 0.1% BSA) followed by washing with ice-cold wash buffer (50 mM Tris pH 7.4, 120 mM NaCl). The amount of receptor-bound (and thereby membrane-bound) GTP-gamma^35S is determined by measuring the filter-bound radioactivity, preferably by liquid scintillation spectrometry of the washed filters. Non-specific binding is determined in parallel assays including 10 μM unlabeled GTP-gammaS and typically represents less than 5 percent of total binding. Data is expressed as percent above basal (baseline). The results of GTP binding experiments are analyzed using SIGMAPLOT software (SPSS Inc., Chicago, Ill.). IC50 values are calculated by non-linear regression analysis of dose-response curves using Kaleidograph (Synergy Software, Reading, Pa.).
Alternatively the data is analyzed as follows. First, the average bound radioactivity from negative control wells (no agonist) is subtracted from the bound radioactivity detected for each of the other experimental wells. Second, average bound radioactivity is calculated for the positive control wells (agonist wells). Then, percent inhibition for each compound tested is calculated using the equation:
Calculated IC50 values are converted to K1 values by the Cheng-Prusoff correction (Cheng and Prusoff (1973) Biochem. Pharmacol. 22(23):3099-3108). Accordingly, the following equation: Ki=IC50/(1+[L]/EC50) is used, where [L] is the histamine concentration in the GTP binding assay, and EC50 is the concentration of histamine producing a 50% response, as determined by a dose-response analysis using concentrations of histamine ranging from 10^−10 M to 10^−6M. […]
Background: Binding of GTPγS marks nucleotide exchange on a G protein.
Take `COc1ccc2c(c1)CCN(CC(=O)N1CCN(C3CCC3)CC1)C2` [Compound 60, 2-[2-(4-cyclobutylpiperazin-1-yl)-2-oxoethyl]-6-methoxy-1,2,3,4-tetrahydroisoquinoline]: the Ki is less than 1 µM.

Staying with this experiment, now noted: Table II "Ki", symbol *; assay of Example 7.
As for `CCCOc1ccc(-c2ccc3c(c2)CCN(CC(=O)N2CCN(C4CCC4)CC2)C3)cc1` [Compound 544, 2-[2-(4-cyclobutylpiperazin-1-yl)-2-oxoethyl]-6-(4-propoxyphenyl)-1,2,3,4-tetrahydroisoquinoline], the Ki is less than 1 µM.

Consider `CC1CCCCC1N1CCN(C(=O)CN2CCc3cc(-c4cncnc4)ccc3C2)CC1` (stereo not shown) [Compound 619, 2-{2-[4-(2-methylcyclohexyl)piperazin-1-yl]-2-oxoethyl}-6-pyrimidin-5-yl-1,2,3,4-tetrahydroisoquinoline], for which the inhibition constant Ki was less than 1 µM.

With `Cc1cccc(-c2ccc3c(c2)CCN(CC(=O)N2CCN(C4CCC4)CC2)C3)n1` [Compound 628, 2-[2-(4-cyclobutylpiperazin-1-yl)-2-oxoethyl]-6-(6-methylpyridin-2-yl)-1,2,3,4-tetrahydroisoquinoline], the Ki was less than 1 µM. Consider `O=C(CN1CCc2nc(NC3CCCCC3)ccc2C1)N1CCN(C2CCC2)CC1` [Compound 658, 6-[2-(4-cyclobutylpiperazin-1-yl)-2-oxoethyl]-N-cyclohexyl-5,6,7,8-tetrahydro-1,6-naphthyridin-2-amine], for which the inhibition constant Ki was less than 1 µM.

Consider `COC[C@@H]1CCCN1c1ccc2c(n1)CCN(CC(=O)N1CCN(C3CCC3)CC1)C2` [Compound 678, 6-[2-(4-cyclobutylpiperazin-1-yl)-2-oxoethyl]-2-[(2S)-2-(methoxymethyl)pyrrolidin-1-yl]-5,6,7,8-tetrahydro-1,6-naphthyridine], for which the inhibition constant Ki was less than 1 µM.

Still in this experiment, the particulars now being: Table II; "*" = Ki in assay of Example 7 less than 1 micromolar.
Turning to `CC(C)N1CCN(C(=O)CN2CCc3cc(-c4cccnn4)ccc3C2)CC1` [Compound 164, 2-[2-(4-isopropylpiperazin-1-yl)-2-oxoethyl]-6-pyridazin-3-yl-1,2,3,4-tetrahydroisoquinoline], the Ki is less than 1 µM. Regarding `O=C(CN1CCc2cc(C(=O)N3CCCC3)ccc2C1)N1CCN(C2CCC2)CC1` [Compound 89, 2-[2-(4-cyclobutylpiperazin-1-yl)-2-oxoethyl]-6-(pyrrolidin-1-ylcarbonyl)-1,2,3,4-tetrahydroisoquinoline], the Ki is less than 1 µM. Take `O=C(CN1CCc2nn(-c3cncc(N4CCCC4)n3)cc2C1)N1CCN(C2CCC2)CC1` [Compound 268, 5-[2-(4-cyclobutylpiperazin-1-yl)-2-oxoethyl]-2-(6-pyrrolidin-1-ylpyrazin-2-yl)-4,5,6,7-tetrahydro-2H-pyrazolo[4,3-c]pyridine]: the Ki was less than 1 µM. For `CC1CCC[C@H]2CN(C(=O)CN3CCc4nc(Cl)sc4C3)CCN12` (stereo in doubt) [Compound 147, 2-[(2-chloro-6,7-dihydro[1,3]thiazolo [5,4-c]pyridin-5(4H)-yl)acetyl]-6-methyloctahydro-2H-pyrido[1,2-a]pyrazine], the Ki was less than 1 µM. Same read-out and setting: with `O=C(CN1CCc2nn(-c3cncc(Cl)n3)cc2C1)N1CCN(C2CCC2)CC1` [Compound 267, 2-(6-chloropyrazin-2-yl)-5-[2-(4-cyclobutylpiperazin-1-yl)-2-oxoethyl]-4,5,6,7-tetrahydro-2H-pyrazolo[4,3-c]pyridine] the figure was less than 1 µM; with `CC(=O)c1ccc2c(c1)CCN(CC(=O)N1CCN3C(C)CCCC3C1)C2` (stereo not shown) [Compound 142, 1-{2-[2-(6-methyloctahydro-2H-pyrido[1,2-a]pyrazin-2-yl)-2-oxoethyl]-1,2,3,4-tetrahydroisoquinolin-6-yl}ethanone], less than 1 µM; with `O=C(CN1CCc2nc(-c3cccnn3)ccc2C1)N1CCN(C2CCC2)CC1` [Compound 172, 6-[2-(4-cyclobutylpiperazin-1-yl)-2-oxoethyl]-2-pyridazin-3-yl-5,6,7,8-tetrahydro-1,6-naphthyridine], less than 1 µM. On to `COc1ccc(-n2cc3c(n2)CCN(CC(=O)N2CCN(C4CCC4)CC2)C3)cc1` [Compound 238, 5-[2-(4-cyclobutylpiperazin-1-yl)-2-oxoethyl]-2-(4-methoxyphenyl)-4,5,6,7-tetrahydro-2H-pyrazolo[4,3-c]pyridine], for which the Ki is less than 1 µM. Consider `O=C(CN1CCc2nn(-c3cncc(C4CC4)n3)cc2C1)N1CCN(C2CCC2)CC1` [Compound 272, 5-[2-(4-cyclobutylpiperazin-1-yl)-2-oxoethyl]-2-(6-cyclopropylpyrazin-2-yl)-4,5,6,7-tetrahydro-2H-pyrazolo[4,3-c]pyridine], for which the Ki was less than 1 µM. Regarding `CC1CCCC2CN(C(=O)CN3CCc4cc(-c5cccnn5)ccc4C3)CCN12` (stereo not shown) [Compound 165, 6-methyl-2-[(6-pyridazin-3-yl-3,4-dihydroisoquinolin-2(1H)-yl)acetyl]octahydro-2H-pyrido[1,2-a]pyrazine], the Ki was less than 1 µM. In the case of `O=C(CN1CCc2nc(-c3cccnc3)ncc2C1)N1CCN(C2CCC2)CC1` [Compound 143, 6-[2-(4-cyclobutylpiperazin-1-yl)-2-oxoethyl]-2-pyridin-3-yl-5,6,7,8-tetrahydropyrido[4,3-d]pyrimidine], the Ki was less than 1 µM. On to `O=C(CN1CCc2cc(-n3cncn3)ccc2C1)N1CCN(C2CCC2)CC1` [Compound 207, 2-[2-(4-cyclobutylpiperazin-1-yl)-2-oxoethyl]-6-(1H-1,2,4-triazol-1-yl)-1,2,3,4-tetrahydroisoquinoline], for which the Ki was less than 1 µM.

Turning to `CCN(C)c1ccc2c(n1)CCN(CC(=O)N1CCN(C3CCC3)CC1)C2` [Compound 245, 6-[2-(4-cyclobutylpiperazin-1-yl)-2-oxoethyl]-N-ethyl-N-methyl-5,6,7,8-tetrahydro-1,6-naphthyridin-2-amine], the Ki is less than 1 µM.

On to `CC1CCC[C@H]2CN(C(=O)CN3CCc4cc(-c5cncnc5)ccc4C3)CCN12` (stereo in doubt) [Compound 149, 6-methyl-2-[(6-pyrimidin-5-yl-3,4-dihydroisoquinolin-2(1H)-yl)acetyl]octahydro-2H-pyrido[1,2-a]pyrazine], for which the Ki is less than 1 µM.

The experiment is the same for the next values; noted with them: Table II; assay of Example 7.
Regarding `O=C(CN1CCc2nn(C3CCCC3)cc2C1)N1CCN(C2CCC2)CC1` [Compound 684, 5-[2-(4-cyclobutylpiperazin-1-yl)-2-oxoethyl]-2-cyclopentyl-4,5,6,7-tetrahydro-2H-pyrazolo[4,3-c] pyridine], the Ki was less than 1 µM.

The same experiment, now with this note: assay of Example 7; "*" in Ki of Table II.
For the compound `O=C(CN1CCc2nc(-c3cccc(Cl)c3Cl)sc2C1)N1CCN(C2CCC2)CC1` [Compound 358, 5-[2-(4-cyclobutylpiperazin-1-yl)-2-oxoethyl]-2-(2,3-dichlorophenyl)-4,5,6,7-tetrahydro[1,3]thiazolo [5,4-c]pyridine], the Ki was less than 1 µM.

In the case of `O=C(CN1CCc2nc(-c3ccc(F)cc3)sc2C1)N1CCN(C2CCC2)CC1` [Compound 297, 5-[2-(4-cyclobutylpiperazin-1-yl)-2-oxoethyl]-2-(4-fluorophenyl)-4,5,6,7-tetrahydro[1,3]thiazolo [5,4-c]pyridine], the Ki is less than 1 µM. The same measure, in the same setting: as for `O=C(CN1CCc2cc(-c3cncnc3)ccc2C1)N1CCN(C2CCCC2)CC1` [Compound 392, 2-[2-(4-cyclopentylpiperazin-1-yl)-2-oxoethyl]-6-pyrimidin-5-yl-1,2,3,4-tetrahydroisoquinoline], the figure is less than 1 µM. On the same count and under the same terms, with `Cc1cc(C)c(-c2nc3c(s2)CN(CC(=O)N2CCN(C4CCC4)CC2)CC3)c(C)c1` [Compound 366, 5-[2-(4-cyclobutylpiperazin-1-yl)-2-oxoethyl]-2-mesityl-4,5,6,7-tetrahydro[1,3]thiazolo [5,4-c]pyridine] the figure was less than 1 µM.

Source of the values: patent US20110082130A1 (LIGAND PHARMACEUTICALS, INC., priority 2006, published 2011).
